As usually defined, the Tmax is the time from dosing to the highest level.

Series [1] can be described thus: MALDI MSI of brain sections, biodistribution in healthy nonhuman primates. The note with it: for concentration at 4 h: male, rhesus monkey, oral, 6 mg/kg. The procedure:
Animals were randomized using the GSK Randomization App 2.0, which is an internal software tool that uses the ‘sample’ function in R to randomly shuffle animal IDs, then assigns them to treatment groups to ensure unbiased allocation.
Before each dose, animals were lightly sedated with an intramuscular injection of ketamine (5–10 mg/kg), and a blood sample was drawn. […] NHPs were euthanized by administering an overdose of injected sodium pentobarbital IV (150–200 mg/kg) and confirmed by thoracotomy and exsanguination. Terminal plasma, cerebrospinal fluid, and brain tissue were collected at necropsy. […] The brain was cut into six roughly 1-cm thick coronal segments before snap-freezing by floating on liquid nitrogen. The right hemispheres of the four interior coronal brain segments were cryosectioned and analyzed by matrix-assisted laser desorption/ionization mass spectrometry imaging (MALDI MSI) to quantitatively assess the tissue distribution of the dosed compounds[40]–[43]. After MALDI MSI analysis, tissue sections were stained with hematoxylin and eosin (H&E) for correlation of ion images with underlying tissue histology.
For both the nonhuman primate (NHP) and mouse metastases model studies, brain tissue sections of 6-µm thickness were prepared on a Leica CM1950 cryostat (Leica Biosystems, Danvers, MA). For the NHP study, tissue sections were collected from four of the coronal brain segments from each animal. From each coronal segment, three tissue sections were collected for MALDI MSI, one section for hematoxylin and eosin (H&E) staining, and roughly 30 sections were collected into a pre-weighed vial for homogenization and liquid chromatography–tandem mass spectrometry (LC-MS/MS) bioanalysis. The three sections for MALDI MSI were thaw-mounted onto double-width indium tin oxide–coated slides (BigSlides; Bruker Daltonics, Billerica, MA) that had been pretreated with a poly-L-lysine solution to improve tissue adherence. The section for H&E staining was thaw-mounted onto a standard double-width glass microscope slide.
A gelatin cast of the mimetic model was prepared by pipetting a warmed (50 °C) 15% gelatin solution into a tissue microarray mold (Arraymold kit C, 4 mm, 15 cores; Arraymold, Ogden, UT). The gelatin cast was then frozen overnight at (− 20 °C). Bulk homogenate of control rat brain tissue was prepared using an Omni Bead Ruptor Elite bead mill homogenizer (Omni International, Kennesaw, GA). […] The gelatin cast was warmed to room temperature, and the spiked homogenates were pipetted into each of the individual wells. The cast and homogenate were then frozen by floating on liquid nitrogen and stored at − 80 °C. Cryosections (6-µm thickness) of the mimetic tissue model were then collected on the same slide as the sample tissue to be quantified.
Slides were coated with a TM Sprayer (HTX Technologies, Chapel Hill, NC) using the following parameters: 0.1-mL/min flowrate, 70 °C, 3-mm track spacing with CC pattern, and 8 passes.
MALDI MSI was performed on either a Bruker ScimaX (7T) or a Bruker SolariX (7T) FT-ICR mass spectrometer. […] Both narrowband and CASI windows were centered between parent and internal standard m/z. The small laser focus was used with 200 laser shots per position, and the laser power was adjusted in accordance with a quality control sample acquired just before initiating the imaging sequence.
After MALDI MSI acquisition, slides were immersed in 100% ethanol for 5 min to remove the MALDI matrix. Slides were then stained with H&E and digitally scanned. Ion images were loaded into flexImaging (Bruker Daltonics), the post–MALDI H&E image was coregistered, and key regions of interest (ROIs) for the tissue and mimetic model were drawn. […] This stipulation was implemented to avoid internal standard normalization of noise, which can introduce artifactual distributions.

The conditions of series [2]: 43 patients, phase 0 cohort, 200 or 300 mg once daily 4 days, cited from earlier work.
The conditions of series [3]: oral dosing in NHPs; ref data not reported; cited from earlier work.
For series [4] the following is noted: cited from earlier work.
The conditions of series [5]: cited from earlier work. This is another data set of the same source.
On the set-up of series [6]: method as in earlier work. The note with it: humans, multiple-dose oral administration; cited from earlier work.

Values joined by “and” are separate entries in the source; they are usually repeats but may differ in a detail not shown here. Equal entries are not always repeated. Where two headings read alike, the source gives them in different places.

For the compound `NC(=O)c1cccc2cn(-c3ccc([C@@H]4CCCNC4)cc3)nc12` [Niraparib], the “MALDI MSI Brain sections, mean (SD)” value in series [1] (healthy rhesus macaques, individual animals, oral once daily 5 days, niraparib 6 mg/kg (4 h after last dose), olaparib 10 mg/kg (2–2.5 h), total concentration, LOD 20 ng/g niraparib, 70 ng/g olaparib) is 283 (69) ng/g and 684 (189) ng/g. The concentration at 4 h in series [1] (brain (coronal Region 1 sections), MALDI MSI Mean Conc. by brain region, NHP-1, Region 1, 3 sections, Fig. 1B) was determined as 268 ng/g; in series [1] (brain (coronal Region 1 sections), MALDI MSI Mean Conc. by brain region, NHP-2, Region 1, 3 sections, Fig. 1B), 524 ng/g; in series [1] (brain (coronal Region 2 sections), MALDI MSI Mean Conc. by brain region, NHP-1, Region 2, 3 sections, Fig. 1B), 287 ng/g; in series [1] (brain (coronal Region 2 sections), MALDI MSI Mean Conc. by brain region, NHP-2, Region 2, 3 sections, Fig. 1B), 610 ng/g; in series [1] (brain (coronal Region 3 sections), MALDI MSI Mean Conc. by brain region, NHP-1, Region 3, 3 sections, Fig. 1B), 217 ng/g; in series [1] (brain (coronal Region 3 sections), MALDI MSI Mean Conc. by brain region, NHP-2, Region 3, 3 sections, Fig. 1B) it was 822 ng/g. In addition, the concentration at 4 h in series [1] (brain (coronal Region 4 sections), MALDI MSI Mean Conc. by brain region, NHP-1, Region 4, 3 sections, Fig. 1B) worked out at 362 ng/g; in series [1] (brain (coronal Region 4 sections), MALDI MSI Mean Conc. by brain region, NHP-2, Region 4, 3 sections, Fig. 1B), 781 ng/g; in series [1] (brain blood vessel, Niraparib Mean Conc. in histological ROI, NHP-1, Blood Vessel, Fig. 1D), 779 ng/g; in series [1] (brain blood vessel, Niraparib Mean Conc. in histological ROI, NHP-2, Blood Vessel, Fig. 1D), 1210 ng/g; in series [1] (brain gray matter, Niraparib Mean Conc. in histological ROI, NHP-1, Gray Matter, Fig. 1D) it was 292 ng/g; in series [1] (brain gray matter, Niraparib Mean Conc. in histological ROI, NHP-2, Gray Matter, Fig. 1D) it was 743 ng/g. Moreover, the concentration at 4 h in series [1] (brain parenchyma, mean unbound niraparib concentration in the brain parenchyma, healthy rhesus macaques, estimated from MALDI MSI) was approximately 15 ng/g; in series [1] (brain ventricle, Niraparib Mean Conc. in histological ROI, NHP-1, Ventricle, Fig. 1D), 3360 ng/g; in series [1] (brain ventricle, Niraparib Mean Conc. in histological ROI, NHP-2, Ventricle, Fig. 1D) it was 4830 ng/g; in series [1] (brain white matter, Niraparib Mean Conc. in histological ROI, NHP-1, White Matter, Fig. 1D) it was 177 ng/g; in series [1] (brain white matter, Niraparib Mean Conc. in histological ROI, NHP-2, White Matter, Fig. 1D), 350 ng/g. The “Kp, tumor” value is listed as 7.5 in series [2] (gadolinium-enhanced tissue) and 4.2 in series [2] (nonenhanced tissue). Moreover, the “plasma time to peak drug concentration (Tmax)” value in series [3] is “≈ 4 h”. Besides, in series [4], the cell membrane permeability result is given as “high”. Besides, the figures for the “Kp, brain” value in series [5] (P-gp knockout mice), in series [5] (P-gp/BCRP knockout mice) and in series [5] (wild-type mice) were 1.20, 1.46 and 0.20, respectively.

In the case of `O=C(c1cc(Cc2n[nH]c(=O)c3ccccc23)ccc1F)N1CCN(C(=O)C2CC2)CC1` [Olaparib], the time to peak (Tmax) in series [6] was 1 to 3 h.
